System: MDA-MB-231 clone 16, MDA-MB-231 clone 40, JimT-1 and HCC1954 cells
Assay: Cell proliferation assays of anti-Her2 ADCs, results in words over the cell line panel
Assay type: cell-based, human
Settings: Her2 high, medium and low cell lines
Description: Cells that naturally express target antigens or cell lines engineered to express target antigens are frequently used to assay the activity and potency of ADCs. For evaluation of the cell killing potency of anti-Her2 antibody ADCs in vitro, two engineered cell lines, MDA-MB-231 clone 16 and clone 40, and two endogenous cell lines, JimT-1 and HCC1954 cells were employed (Clinchy B, Gazdar A, Rabinovsky R, Yefenof E, Gordon B, Vitetta E S. Breast Cancer Res Treat. (2000) 61:217-228). MDA-MB-231 clone 16 cells stably express high copy numbers (˜5×10^5copies/cell) of recombinant human Her2 on the cell surface, while clone 40 expresses human Her2 at low levels (˜5×10^3 copies/cell). HCC1954 cells endogenously express high levels (˜5×10^5 copies/cell) of […] human Her2 in the surface while JimT-1 cells express human Her2 at a medium level (˜8×10^4 copies/cell). NCI-N87 cells express high levels of Her2 while A375 cell express low levels of Her2. An ADC should kill cells in an antigen-dependent manner, meaning that only cells that express sufficient antigen in the cell surface but not cells lacking the antigen will be killed. Therefore cell killing should not be observed MDA-MB-231 clone 40 cells.
(§1) To measure antigen-dependent cell killing, cell proliferation assays were conducted with Cell-Titer-Glo™ (Promega) five days after different cell types were incubated with various concentrations of ADCs (Riss et al., (2004) Assay Drug Dev Technol. 2:51-62).
Anti-Her2 ADCs prepared with compounds of the invention and conjugated site-specifically to anti-Her2 Cys mutant antibodies (see Table 5) were assayed in the aforementioned four cell lines to evaluate their cytotoxicity. […] In JimT-1 cells, a cell line with a medium level of Her2 expression, the cell killing activities by the ADCs varied widely. […] Many ADCs killed JimT-1 cell as effectively as HCC1954 and MDAMB231-16 cells (FIG. 1, Table 15). […] The significant differences of cytotoxic potency observed in JimT-1 cell amoung anti-Her2-LC-S159C ADCs have made it possible to rank the potency of the payloads. […] This is in contrast to the in vitro cell killing of both high and low Her2 expressing cell lines by free, unconjugated compounds of the invention (see Example 106,Table 14).

Compound | Cell killing activity of anti-Her2 ADCs
CC[C@H](C)[C@@H]([C@@H](CC(=O)N1CCC[C@H]1[C@H](OC)[C@@H](C)C(=O)N[C@@H](Cc1ccccc1)C(=O)O)OC)N(C)C(=O)[C@@H](Nc1nc(C)cc(C(=O)NCCNC(=O)CCCCCN2C(=O)C=CC2=O)n1)C(C)C [NL-38, (S)-2-((2R,3R)-3-((S)-1-((3R,4S,5S)-4-((S)-2-((4-((2-(6-(2,5-dioxo-2,5-dihydro-1H-pyrrol-1-yl)hexanamido)ethyl)carbamoyl)-6-methylpyrimidin-2-yl)amino)-N,3-dimethylbutanamido)-3-methoxy-5-methylheptanoyl)pyrrolidin-2-yl)-3-methoxy-2-methylpropanamido)-3-phenylpropanoic acid] | active in HCC1954 and MDAMB231-16 cells but not in JimT-1 cells
CC[C@H](C)[C@@H]([C@@H](CC(=O)N1CCC[C@H]1[C@H](OC)[C@@H](C)C(=O)N[C@@H](Cc1ccccc1)P(=O)(O)O)OC)N(C)C(=O)[C@@H](N=C(N(C)C)N1CCN(C(=O)CCCCCN2C(=O)C=CC2=O)CC1)C(C)C (stereo in doubt) [NL-19, ((R)-1-((2R,3R)-3-((S)-1-((3R,4S,5S)-4-((S)-2-((E)-((dimethylamino)(4-(6-(2,5-dioxo-2,5-dihydro-1H-pyrrol-1-yl)hexanoyl)piperazin-1-yl)methylene)amino)-N,3-dimethylbutanamido)-3-methoxy-5-methylheptanoyl)pyrrolidin-2-yl)-3-methoxy-2-methylpropanamido)-2-phenylethyl)phosphonic acid] | active in HCC1954 and MDAMB231-16 cells but not in JimT-1 cells
CC[C@H](C)[C@@H]([C@@H](CC(=O)N1CCC[C@H]1[C@H](OC)[C@@H](C)C(=O)N[C@@H](Cc1ccccc1)C(=O)O)OC)N(C)C(=O)[C@@H](NC(=O)N(CCCNC(=O)CCCCCN1C(=O)C=CC1=O)C(C)C)C(C)C [NL-30, (S)-2-((2R,3R)-3-((S)-1-((3R,4S,7S)-4-((S)-sec-butyl)-20-(2,5-dioxo-2,5-dihydro-1H-pyrrol-1-yl)-7,10-diisopropyl-3-methoxy-5-methyl-6,9,15-trioxo-5,8,10,14-tetraazaicosan-1-oyl)pyrrolidin-2-yl)-3-methoxy-2-methylpropanamido)-3-phenylpropanoic acid] | active in HCC1954 and MDAMB231-16 cells but not in JimT-1 cells
CC[C@H](C)[C@@H]([C@@H](CC(=O)N1CCC[C@H]1[C@H](OC)[C@@H](C)C(=O)N[C@@H](Cc1ccccc1)P(=O)(O)O)OC)N(C)C(=O)[C@@H](/N=C(\N(C)C)N1CCN(C(=O)CCCn2cc(CN3C(=O)C=CC3=O)nn2)CC1)C(C)C [NL-21, ((R)-1-((2R,3R)-3-((S)-1-((3R,4S,5S)-4-((S)-2-((E)-((dimethylamino)(4-(4-(4-((2,5-dioxo-2,5-dihydro-1H-pyrrol-1-yl)methyl)-1H-1,2,3-triazol-1-yl)butanoyl)piperazin-1-yl)methylene)amino)-N,3-dimethylbutanamido)-3-methoxy-5-methylheptanoyl)pyrrolidin-2-yl)-3-methoxy-2-methylpropanamido)-2-phenylethyl)phosphonic acid] | active in HCC1954 and MDAMB231-16 cells but not in JimT-1 cells
CC[C@H](C)[C@@H]([C@@H](CC(=O)N1CCC[C@H]1[C@H](OC)[C@@H](C)C(=O)N[C@@H](Cc1ccccc1)C(=O)NS(=O)(=O)CCCn1cc(CN2C(=O)C=CC2=O)nn1)OC)N(C)C(=O)[C@@H](Nc1nccc(C)n1)C(C)C [CL-24, (S)-2-((4-methylpyrimidin-2-yl)amino)-1-(((3R,4S,5S)-1-((S)-2-((1R,2R)-3-(((S)-N-1-(3-(4-((2,5-dioxo-2,5-dihydro-1H-pyrrol-1-yl)methyl)-1H-1,2,3-triazol-1-yl)propylsulfonamido)-1-oxo-3-phenylpropan-2-yl)amino)-1-methoxy-2-methyl-3-oxopropyl)pyrrolidin-1-yl)-3-methoxy-5-methyl-1-oxoheptan-4-yl)(methyl)amino)-3-methyl-1-oxobutane] | active in HCC1954 and MDAMB231-16 cells but not in JimT-1 cells
CC[C@H](C)[C@@H]([C@@H](CC(=O)N1CCC[C@H]1[C@H](OC)[C@@H](C)C(=O)N[C@@H](Cc1ccccc1)C(=O)Nc1ccc(CNC(=O)CCCCCN2C(=O)C=CC2=O)cc1)OC)N(C)C(=O)[C@@H](/N=C(\N(C)C)N1CCNCC1)C(C)C [CL-5, N-(4-((S)-2-((2R,3R)-3-((S)-1-((3R,4S,5S)-4-((S)-2-((E)-((dimethylamino)(piperazin-1-yl)methylene)amino)-N,3-dimethylbutanamido)-3-methoxy-5-methylheptanoyl)pyrrolidin-2-yl)-3-methoxy-2-methylpropanamido)-3-phenylpropanamido)benzyl)-6-(2,5-dioxo-2,5-dihydro-1H-pyrrol-1-yl)hexanamide] | active in HCC1954 and MDAMB231-16 cells but not in JimT-1 cells

System: H526, KU812, CMK11-5 and Jurkat cells
Assay: Cell proliferation assays of antibody 20507 ADCs, results in words over the cell line panel
Assay type: cell-based, human
Settings: antigen expressing cells versus Jurkat
Protocol: as §1

Compound | Cell killing activity of antibody 20507 ADCs
CC[C@H](C)[C@@H]([C@@H](CC(=O)N1CCC[C@H]1[C@H](OC)[C@@H](C)C(=O)N[C@@H](Cc1ccccc1)C(=O)O)OC)N(C)C(=O)[C@@H](/N=C(\N(C)C)N1CCN(C(=O)CCCCCN2C(=O)C=CC2=O)CC1)C(C)C [NL-4, (S)-2-((2R,3R)-3-((S)-1-((3R,4S,5S)-4-((S)-2-((E)-((dimethylamino)(4-(6-(2,5-dioxo-2,5-dihydro-1H-pyrrol-1-yl)hexanoyl)piperazin-1-yl)methylene)amino)-N,3-dimethylbutanamido)-3-methoxy-5-methylheptanoyl)pyrrolidin-2-yl)-3-methoxy-2-methylpropanamido)-3-phenylpropanoic acid] | active when conjugated to antibody 20507
CC[C@H](C)C([C@@H](CC(=O)N1CCC[C@H]1[C@H](OC)[C@@H](C)C(=O)N[C@@H](Cc1ccccc1)C(=O)NS(=O)(=O)CCCn1cc(CN2C(=O)C=CC2=O)nn1)OC)N(C)C(=O)[C@@H](N=C(N(C)C)N(C)C)C(C)C (stereo partly drawn) [CL-9, (S)-2-((Bis(dimethylamino)methylene)amino)-1-(((3R,4S,5S)-1-((S)-2-((1R,2R)-3-(((S)-N-1-(3-(4-((2,5-dioxo-2,5-dihydro-1H-pyrrol-1-yl)methyl)-1H-1,2,3-triazol-1-yl)propylsulfonamido)-1-oxo-3-phenylpropan-2-yl)amino)-1-methoxy-2-methyl-3-oxopropyl)pyrrolidin-1-yl)-3-methoxy-5-methyl-1-oxoheptan-4-yl)(methyl)amino)-3-methyl-1-oxobutane] | active when conjugated to antibody 20507
CC[C@H](C)[C@@H]([C@@H](CC(=O)N1CCC[C@H]1[C@H](OC)[C@@H](C)C(=O)N[C@H](Cc1ccccc1)C(=O)Nc1ccc(CNC(=O)CCCCCN2C(=O)C=CC2=O)cc1)OC)N(C)C(=O)[C@@H](N=C(N(C)C)N(C)C)C(C)C [CL-1, N-(4-((R)-2-((2R,3R)-3-((S)-1-((3R,4S,5S)-4-((S)-2-((bis(dimethylamino)methylene)amino)-N,3-dimethylbutanamido)-3-methoxy-5-methylheptanoyl)pyrrolidin-2-yl)-3-methoxy-2-methylpropanamido)-3-phenylpropanamido)benzyl)-6-(2,5-dioxo-2,5-dihydro-1H-pyrrol-1-yl)hexanamide] | active when conjugated to antibody 20507
